US9662404B2, “Compositions and methods for the delivery of molecules into live cells” (The Texas A&M University System, priority 2013, dated 2017)
Ends that are not written are not given here.

Key:
[1] = test system: Dorsal root ganglion F11 (DRG-F11) neuronal cells; experiment: dTAT penetration into cells resistant to transfection; format: cell-based; settings: 5 μM, 1 hour
Protocol: Dorsal root ganglion F11 (DRG-F11) neuronal cells are notoriously difficult to transfect. dTAT exposure was tested in DRG-F11 cells to determine whether the transfection difficulties also posed a barrier for dTAT. DRG-F11 cells were incubated for 1 hour with dTAT (5 μM).

[2] = test system: neuronal cell line Neuro-2a and primary human dermal fibroblasts (HDF); experiment: Cellular localization of dTAT in neuronal and primary cells; format: cell-based; settings: 1 h incubation
Protocol: FIG. 11 illustrates the cellular localization of dTAT after 1 h incubation with neuronal cell line Neuro-2a (left panel) and primary human dermal fibroblasts (HDF) (right panel). Cells were incubated with dTAT, washed, and imaged with a 100× objective. […] FIG. 12 graphically illustrates the proliferation rate (absorbance in an MTT assay) of treated and untreated HeLa, Neuro-2a, and HDF cells.

[3] = test system: cells; experiment: Whole-genome microarray analysis after dTAT treatment; format: cell-based; settings: 5 μM, 1 h; analysis immediately, 1 h or 24 h after treatment
Protocol: To better determine the effect of dTAT exposure on a cell, a whole-genome microarray analysis was performed on cells treated with 5 μM dTAT for 1 h to determine whether transcriptional patterns are influenced. Analysis was performed immediately, 1 h, or 24 h after dTAT treatment. […] The straight lines represent 2-fold intensity change cut-offs.

[4] = test system: HeLa or NIH 3T3 cells; experiment: dTAT-mediated delivery of EGFP by co-incubation; format: cell-based; settings: EGFP 10 μM and dTAT 5 μM, 1 h
Protocol: dTAT, DEAC-K9 and, SNAP-Surface® 488 are relatively small molecules. It was therefore addressed whether dTAT-mediated endosomal leakage could deliver large proteins into the cytosol of cells. For this assay, EGFP (26 kDa) was chosen as a model, since this protein is fluorescent only when properly folded. EGFP and dTAT were incubated for 1 h with cells and the protein distribution was examined by fluorescence. […] While protein degradation might take place during delivery, this assay establishes that a population of folded protein is delivered.
Images were acquired as described before.

[5] = test system: HeLa transfected with the pCALNL-GFP plasmid; format: cell-based; settings: delivery peptide 5 μM in the presence of TAT-Cre 1 μM, 1 h
Protocol: The number of cells in the images was approximately the same as assessed by bright field microscopy (1,000 cells/experiment, experiments in triplicate, average and standard deviations represented). Scale bars, 100 μM.
To further confirm that functional proteins can penetrate cells upon incubation with dTAT, delivery of Cre recombinase was tested. In this assay, Cre induces recombination of a loxP-STOP-loxP sequence upstream of the egfp gene of a reporter plasmid.

[6] = test system: NIH 3T3 cells; experiment: HoxB4 and TAT-HoxB4 delivery, luciferase reporter under a HoxB4-inducible promoter; format: cell-based, murine; settings: dTAT 3 μM alone
Protocol: Next, the delivery of the therapeutically important transcription factor HoxB4 was tested. HoxB4 can penetrate cells by itself or when fused to the […] TAT and activate transcription. […] NIH 3T3 cells were transfected with a vector containing the luciferase gene under a HoxB4-inducible promoter and with a β-galactosidase reporter as internal control. Cells were incubated with HoxB4 or TAT-HoxB4, in the absence or presence of dTAT for 1.5 h. Cells were then lysed and luciferase expression was assessed by measuring the luminescence of cell lysates normalized to β-galactosidase activity. […] These values are consistent with previously published reports. In contrast, addition of dTAT (3 μM), led to a luciferase induction of 53.1 and 307.4, respectively. The luciferase induction was therefore increased 24-fold in the presence of dTAT for HoxB4 and 61-fold for TAT-HoxB4. […] While increasing the transcriptional output of HoxB4 is valuable, high levels of HoxB4 expression can result in anti-proliferative and transforming effects. Precisely controlling the level and activity of HoxB4 inside cells is therefore important to achieve a desirable biological outcome. Because dTAT appears to act independently of the molecules used for co-incubation in our assays, it was hypothesized that it might be possible to titrate the amount of protein that penetrates cells by varying the protein concentration in the media while keeping dTAT concentration constant. Under this scenario, the efficiency of endosomal escape should remain unaffected but the amount of material released from endosomes should change.
The murine fibroblast cell line (NIH-3T3, stably transfected with the E2A-PBX vector), the luciferase reporter vector, pML (5×HOX/PBX; contains a promoter with binding sites for HOXB4 and PBX) and the β-gal internal control vector used in the following studies were kindly provided by P. Zandstra (University of Toronto, Ontario, Canada). The cells were initially cultured in 100 mm dishes at 37° C. with 5% CO2 in DMEM supplemented with 10% FBS. For experimental purposes, however, cells were seeded in 24-well plates at a density of 5-6×10^4 cells/well for 24 hours. Subsequently, cells were co-transfected with 0.8 μg/mL of pML (5×HOX/PBX) and of the β-gal internal control vector using Lipofectamine 2000. Twelve hours post-transfection, cells were washed and incubated with TAT-HoxB4 or HoxB4 (both at 200 nM, unless otherwise noted; see below) with or without TAT or dTAT in nrL-15 for 90 min. Some cells were also incubated with TAT-mCherry (200 nM) with and without the peptides. After incubation, all cells were washed with PBS and lysed according to the manufacturer's protocol for the reporter lysis buffer (RLB) (Promega). For titration experiments, the same protocol was followed, with the exception that HoxB4 concentrations were varied (25, 50, 100, 150 and 200 nM). In order to quantitate the luciferase reporter activity, 100 μL of luciferase assay reagent (Promega) was added to 20 μL of cell lysate and bioluminescence was immediately measured using a SpectraMaxL luminometer (Sunnyvale, Calif.). […] Absorbance was then measured at 450 nm using the plate reader. Since the absorption spectrum of the chromophore (TMR) conjugated to the peptide used in this study overlaps with that of β-gal, 20 μL of cell lysate containing the peptide was also diluted with 180 μL of the lysis buffer and absorbance values obtained at 450 nm were subtracted from that of the β-gal absorbance values. […]

Substance: (CK(TMR)TAT)2 (CK(TMR)RKKRRQRRRG; also: dimer) [dTAT, dimer of two CK(TMR)-TAT monomers linked via a disulfide bond between the N-terminal cysteine residues]
- penetration into the cytosol [1]: penetrates into the cytosol of DRG-F11 cells
- cellular localization of fluorescence [2]: cytosolic release
- transcriptional response on a whole-genome scale [3]: minimal transcriptional perturbations
- cells with EGFP distributed into the cytosol and nucleus [4]: more than 90%
- toxicity during EGFP delivery [4]: without observable toxicity
- percentage of EGFP+ cells [5]: 47%
- induction of luciferase [6]: Neither dTAT alone nor dTAT incubated with TAT-mCherry led to the induction of luciferase
